According to US9421211B2, “N,N′-diarylurea compounds and N,N′-diarylthiourea compounds as inhibitors of translation initiation” (President and Fellows of Harvard College, priority 2009, dated 2016):
Where two headings read alike, the source gives them in different places.

How the values were obtained:
[1] = tested on: eIF2.GTP.Met-tRNAi ternary complex; test: ATF-4 assay (firefly/renilla luciferase ratio) in CRL-2351 cell line; format: cell-based, human; conditions: for maximal fold induction / EC (activity threshold of 5): Homo sapiens; for maximal fold induction: read-out: ATF-4 Amax: maximal activity, ratio of firefly over renilla luciferase expression; for EC (activity threshold of 5): read-out: ATF-4 C[5] (μM): concentration corresponding to an activity threshold of 5; for Cmax: read-out: ATF-4 Cmax (μM): concentration corresponding to the maximal activity
Excerpt: For example, reducing amount of the ternary complex increases translation of ATF-4, which results in elevated expression of CHOP mRNA and protein. Therefore, expression of endogenous CHOP mRNA and CHOP protein in KLN-tTA/pBISA-DL^(ATF-4) cells were utilized as secondary assays to validate N,N′-diarylurea compounds as modifiers of the eIF2.GTP.Met-tRNAi ternary complex. […] To rule out the possibility that the activity of N,N′-diarylurea compounds was confined to a single cell type, the effects of these compounds on the ternary complex assay and the expression of CHOP mRNA was assayed in CRL-2351, PC-3, CRL-2813 human breast, prostate, and melanoma cancer cell lines respectively. For the reporter gene assay, the three human cell lines were co-transfected with tTA expression vector and the pBISA-DL^(ATF-4) dual luciferase expression vector shown in FIG. 6. […] The expression of CHOP mRNA was assayed by real time PCR in the same cell lines treated with 5 or 20 μM of each compound.
Stable and transient transfection: Cells were seeded at the density of 10^5 in 60-mm (stable transfection) or 10^4 cells per well of 96-well plate (transient transfection) plates and transfected one day later using the Qiagen Transfectamine transfection kit. For selection of stable cell lines, transfected cells were transferred to 100-mm plates and selected with appropriate antibiotics.
Dual luciferase assay: Cells or minced tumors expressing firefly and renilla luciferases were lysed and the extracts assayed with a glow type dual luciferase assay kit, per manufacturer's instruction (Promega Inc., Madison, Wis.).

[2] = tested on: CRL-2813 human melanoma cells; test: Cell proliferation SRB assay, CRL-2813; format: cell-based
Method: Reduced availability of the ternary complex causes inhibition of translation initiation and thereby of cell proliferation. […] The effects of N,N′-diarylureas on the proliferation KLN mouse squamous cell carcinoma, CRL-2351 human breast, CRL-2813 human melanoma, A549 human lung and PC-3 human prostate cancer cell lines were tested. […]
(§1) Cell Growth Assay: Cell Growth was Measured by the SRB Assay.

[3] = tested on: KLN mouse squamous cell carcinoma cells; test: Cell proliferation SRB assay, KLN; format: cell-based
Method: (§2) Reduced availability of the ternary complex causes inhibition of translation initiation and thereby of cell proliferation. […] The effects of N,N′-diarylureas on the proliferation KLN mouse squamous cell carcinoma, CRL-2351 human breast, CRL-2813 human melanoma, A549 human lung and PC-3 human prostate cancer cell lines were tested.
as §1

[4] = tested on: CRL-2351 human breast cancer cells; test: Cell proliferation SRB assay, CRL-2351; format: cell-based; conditions: Homo sapiens
Method: as §2, §1

[5] = tested on: A549 human lung cancer cells; test: Cell proliferation SRB assay, A549; format: cell-based; conditions: read-out: IC50 (μM), concentration that inhibits cell proliferation by 50%
Method: as §2, §1

[6] = tested on: PC-3 human prostate cancer cells; test: Cell proliferation SRB assay, PC-3; format: cell-based; conditions: read-out: IC50 (μM), concentration that inhibits cell proliferation by 50%
Method: as §2
To determine if N,N′-diarylureas inhibit cell proliferation by reducing the availability of the ternary complex, the effect of N,N′-diarylureas on proliferation of previously described transgenic PC-3 human prostate cancer cell lines expressing either the non-phosphorylatable eIF2α-S51A mutant or the eIF2α-WT was studied. […] Reducing the expression of HRI, the eIF2α kinase that mediates N,N′-diarylurea induced phosphorylation of eIF2α similarly abrogates the effect of these agents on cell proliferation (FIGS. 15C and 15D).
as §1

[7] = In vivo toxicity, seven day administration to mice; conditions: female nude mice, 100 or 200 mg/kg daily for seven days, observed 15 days
Method: Five female nude mice each were treated with 200 mg/kg, 100 mg/kg #1781 in 15 μl DMSO or 15 μl DMSO daily for seven days. Mice were observed daily for signs of toxicity and weighed every other day for total of 15 days and then necropsy was performed. The average body of each group is plotted against the time.
To study toxicity effects, mice were treated with various doses of compound #1781 or vehicle.

[8] = CRL2813, 2813 cells, read-out: IC50 (μM) by SRB assay, 2813
[9] = KLN cells, read-out: IC50 (μM) by SRB assay, KLN
[10] = 2351 cells, read-out: IC50 (μM) by SRB assay, 2351
[11] = CRL2813, CRL-2813, read-out: IC50 (μM), concentration that inhibits cell proliferation by 50%
[12] = KLN, read-out: IC50 (μM), concentration that inhibits cell proliferation by 50%
[13] = CRL-2351, read-out: IC50 (μM), concentration that inhibits cell proliferation by 50%

Row | Structure (SMILES) | maximal fold induction [1] | EC (activity threshold of 5) [1] [µM] | Cmax [1] [µM] | IC50 [2, 8] [µM] | IC50 [3, 9] [µM] | IC50 [4, 10] [µM] | IC50 [5] [µM] | IC50 [2, 11] [µM] | IC50 [3, 12] [µM] | IC50 [4, 13] [µM] | IC50 [6] [µM] | In vivo toxicity [7]
1 | O=C(Nc1ccc(Cl)c(Cl)c1)Nc1ccc(Cl)c(Cl)c1 [Compound 1, 1,3-bis(3,4-dichlorophenyl)urea] | 11 | 2 | 5 | 0.8 | > 20 | 2.6 | – | – | – | – | – | –
2 | O=C(Nc1ccc(Cl)c(C(F)(F)F)c1)Nc1ccc(Cl)c(C(F)(F)F)c1 [Compound 2, 1,3-bis[4-chloro-3-(trifluoromethyl)phenyl]urea] | 11 | 1.5 | 2.5 | 1.7 | – | 2.8 | – | – | – | – | – | –
3 | O=C(Nc1cc(C(F)(F)F)cc(C(F)(F)F)c1)Nc1cc(C(F)(F)F)cc(C(F)(F)F)c1 [Compound 3, 1,3-bis[3,5-bis(trifluoromethyl)phenyl]urea] | 11 | 1.5 | 2.5 | 0.1 | 3.9 | 0.6 | – | – | – | – | – | –
4 | Cc1ccc(NC(=O)Nc2ccc(Cl)c(Cl)c2)cc1O [Compound 4, 3-(3,4-dichlorophenyl)-1-(3-hydroxy-4-methylphenyl)urea] | 13 | 11 | 20 | 1.8 | > 20 | 9 | – | – | – | – | – | –
5 | Cc1ccc(NC(=O)Nc2ccc(Cl)c(C(F)(F)F)c2)cc1O [Compound 5, 3-[4-chloro-3-(trifluoromethyl)phenyl]-1-(3-hydroxy-4-methylphenyl)urea] | 11 | 6 | 10 | 1.6 | 20 | 9.3 | – | – | – | – | – | –
6 | Cc1ccc(NC(=O)Nc2cc(C(F)(F)F)cc(C(F)(F)F)c2)cc1O [Compound 6, 3-[3,5-bis(trifluoromethyl)phenyl]-1-(3-hydroxy-4-methylphenyl)urea] | 13 | 3 | 5 | 1 | 13.5 | 3.2 | – | – | – | – | – | –
7 | COc1cc(NC(=O)Nc2ccc(Cl)c(Cl)c2)ccc1C [Compound 7] | – | – | – | > 20 | > 20 | 11 | – | – | – | – | – | –
8 | COc1cc(NC(=O)Nc2ccc(Cl)c(C(F)(F)F)c2)ccc1C [Compound 8] | 8 | 3 | 10 | 3 | 17.2 | 2.5 | – | – | – | – | – | –
9 | COc1cc(NC(=O)Nc2cc(C(F)(F)F)cc(C(F)(F)F)c2)ccc1C [Compound 9] | 12 | < 2.5 | 20 | 0.7 | 20 | 2.2 | – | – | – | – | – | –
10 | Cc1ccc(NC(=O)Nc2ccc(Cl)c(Cl)c2)cc1OCCN(C)C [Compound 11, 3-(3,4-dichlorophenyl)-1-{3-[2-(dimethylamino)ethoxy]-4-methylphenyl}urea] | 7.5 | 8 | 20 | 5.3 | 13.5 | 5.8 | – | – | – | – | – | –
11 | Cc1ccc(NC(=O)Nc2ccc(Cl)c(C(F)(F)F)c2)cc1OCCN(C)C [Compound 12, 3-[4-chloro-3-(trifluoromethyl)phenyl]-1-{3-[2-(dimethylamino)ethoxy]-4-methylphenyl}urea] | 7 | 7 | 10 | 2.8 | 12.3 | 2.5 | – | – | – | – | – | –
12 | Cc1ccc(NC(=O)Nc2ccc(Cl)c(Cl)c2)cc1OCCN1CCOCC1 [Compound 15, 3-(3,4-dichlorophenyl)-1-{4-methyl-3-[2-(morpholin-4-yl)ethoxy]phenyl}urea] | 5.5 | 9 | 10 | – | 20 | 2.4 | – | – | – | – | – | –
13 | Cc1ccc(NC(=O)Nc2ccc(Cl)c(C(F)(F)F)c2)cc1OCCN1CCOCC1 [Compound 16, 3-[4-chloro-3-(trifluoromethyl)phenyl]-1-{4-methyl-3-[2-(morpholin-4-yl)ethoxy]phenyl}urea] | 7 | 7 | 10 | 0.9 | > 20 | 2.7 | – | – | – | – | – | –
14 | Cc1ccc(NC(=O)Nc2cc(C(F)(F)F)cc(C(F)(F)F)c2)cc1OCCN1CCOCC1 [Compound 17, 3-[3,5-bis(trifluoromethyl)phenyl]-1-{4-methyl-3-[2-(morpholin-4-yl)ethoxy]phenyl}urea] | 9 | 3 | 10 | 0.8 | 18.6 | 2.3 | – | – | – | – | – | –
15 | Cc1ccc(NC(=O)Nc2ccc(Cl)c(Cl)c2)cc1OCCN1CCNCC1 [Compound 23, 4-[2-(5-{[(3,4-dichlorophenyl)carbamoyl]amino}-2-methylphenoxy)ethyl]piperazine-1,4-diium dichloride] | 7.5 | 7 | 10 | 5.1 | > 20 | 4.5 | – | – | – | – | – | –
16 | Cc1ccc(NC(=O)Nc2cc(C(F)(F)F)cc(C(F)(F)F)c2)cc1OCCN1CCNCC1 [Compound 25, 4-{2-[5-({[3,5-bis(trifluoromethyl)phenyl]carbamoyl}amino)-2-methylphenoxy]ethyl}piperazine-1,4-diium dichloride] | 10 | 6 | 10 | 3.1 | – | 5.2 | – | – | – | – | – | –
17 | O=C(Nc1ccc(Cl)c(Cl)c1)Nc1ncccc1O [Compound 26] | 12 | 13 | 40 | 1.8 | > 20 | 2 | – | – | – | – | – | –
18 | O=C(Nc1ccc(Cl)c(C(F)(F)F)c1)Nc1ncccc1O [Compound 27] | 6.5 | 10 | 40 | 0.8 | 12.5 | 1.2 | – | – | – | – | – | –
19 | O=C(Nc1ccc(Cl)c(Cl)c1)Nc1cc([N+](=O)[O-])ccc1Cl [Compound 1527] | – | – | – | – | – | – | > 20 | 20 | > 20 | 9.5 | – | –
20 | O=C(Nc1ccc(Cl)c(C(F)(F)F)c1)Nc1ccc2nnsc2c1 [Compound 1780] | – | – | – | – | – | – | 0.8 | 0.1 | 14.8 | 1.3 | 0.9 | –
21 | O=C(Nc1ccc(Cl)c(Cl)c1)Nc1ccc2nnsc2c1 [Compound 1781] | – | – | – | – | – | – | 1.2 | 0.5 | 17.1 | 3 | 1.1 | no apparent in vivo toxicity
22 | O=C(Nc1ccc(Cl)cc1)Nc1ccc2nonc2c1 [KM094748] | – | – | – | – | – | – | 1.3 | 0.3 | 8.5 | 0.1 | 1.4 | –
